Tests used:
[1] = molecular target: T1, recombinant human 5-HT5A receptor (Homo sapiens, UniProt P47898); assay: [3H]LSD radioligand binding assay, membranes of HEK-EBNA cells transiently expressing 5-HT5A receptors; details: [3H]LSD approx. 1 nM, SPA beads, 120 min at room temperature; Ki from IC50 by Cheng-Prussoff equation
T1 construct: expressed in transfected cells; host or cells: HEK-EBNA (Human Embryonic Kidney-EBNA) cells, transient cDNA expression, membranes
Method: A [^3H]LSD radioligand binding assay was used to determine the affinity of the compounds for the recombinant human 5-HT5A receptor, in membranes from transiently (cDNA) expressed 5-HT5A receptors in Human Embryonic Kidney-EBNA (HEK-EBNA) cells. Assay buffer consisted of Tris (50 mM) buffer containing 1 mM EGTA, 10 mM MgCl2 (pH 7.4) and 10 μM pargyline. The binding assay was carried out in 96-well-plates in the presence of [^3H]LSD (approximately 1 nM), approximately 2 μg/well of membrane protein, and 0.5 mg of Ysi-poly-1-lysine SPA beads in a final volume of 200 μl of buffer. Non-specific binding was defined using methiothepin 2 μM. Compounds were tested at 10 concentrations. All assays were conducted in duplicate and repeated at least two times. Assay plates were incubated for 120 min at room temperature before centrifugation. Bound ligand was determined using a Packard Topcount scintillation counter. IC50 values were calculated using a non-linear curve fitting program and Ki values calculated using the Cheng-Prussoff equation.

T1 sequence (P47898 whole entry): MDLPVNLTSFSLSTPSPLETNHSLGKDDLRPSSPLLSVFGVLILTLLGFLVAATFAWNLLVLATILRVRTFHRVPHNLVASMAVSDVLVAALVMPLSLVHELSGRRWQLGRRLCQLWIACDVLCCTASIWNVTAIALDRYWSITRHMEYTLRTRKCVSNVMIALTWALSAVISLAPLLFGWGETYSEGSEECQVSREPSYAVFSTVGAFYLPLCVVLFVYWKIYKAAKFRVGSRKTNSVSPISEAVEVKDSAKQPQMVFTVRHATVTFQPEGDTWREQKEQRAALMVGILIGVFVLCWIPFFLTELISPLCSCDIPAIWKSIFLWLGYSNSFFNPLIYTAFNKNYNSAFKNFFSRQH

Row | Molecule | melting point [°C] | Ki [1] [nM]
1 | Cc1nc(-c2cccc3nc(N[C@@H]4CCc5ccccc54)ccc23)no1 [Example 79, (R)-Indan-1-yl-[5-(5-methyl-[1,2,4]oxadiazol-3-yl)-quinolin-2-yl]-amine] | 105 | 134
2 | O=C(NCc1cccc2nc(N[C@@H]3CCc4ccccc43)ccc12)c1ccc(F)cc1 [Example 80, 4-Fluoro-N-[2-((R)-indan-1-ylamino)-quinolin-5-ylmethyl]-benzamide] | 145 | 34.4
3 | ON=C(c1ccc(Cl)cc1)c1cccc2nc(N[C@@H]3CCc4ccccc43)ccc12 [Example 92, (4-Chloro-phenyl)-[2-((R)-indan-1-ylamino)-quinolin-5-yl]-methanone oxime] | 194 | 5.48
4 | ON=C(c1cc(F)cc(F)c1)c1cccc2nc(N[C@@H]3CCc4ccccc43)ccc12 [Example 101, (3,5-Difluoro-phenyl)-[2-((R)-indan-1-ylamino)-quinolin-5-yl]-methanone oxime] | 120.5 | 7.7
5 | O=C(c1cccs1)c1cccc2nc(N[C@@H]3CCc4ccccc43)ccc12 [Example 102, [2-((R)-Indan-1-ylamino)-quinolin-5-yl]-thiophen-2-yl-methanone] | 176 | 33.4
6 | O=C(c1ccc(CN2CCOCC2)cc1)c1cccc2nc(N[C@@H]3CCc4ccccc43)ccc12 [Example 103, [2-((R)-Indan-1-ylamino)-quinolin-5-yl]-(4-morpholin-4-ylmethyl-phenyl)-methanone] | 160 | 678
7 | ON=C(c1ccc(CN2CCOCC2)cc1)c1cccc2nc(N[C@@H]3CCc4ccccc43)ccc12 [Example 105, [2-((R)-Indan-1-ylamino)-quinolin-5-yl]-(4-morpholin-4-ylmethyl-phenyl)-methanone oxime] | 167 | 23.2
8 | (4-Chloro-phenyl)-[2-((R)-indan-1-ylamino)-quinolin-5-yl]-methanone [Example 90] |  | 49.7

The next molecules have a lower Ki [1] than those just listed; values first:

Row | melting point [°C] | Ki [1] [nM] | Molecule
9 | 194 | 3.64 | ON=C(c1cccs1)c1cccc2nc(N[C@@H]3CCc4ccccc43)ccc12 [Example 104, [2-((R)-Indan-1-ylamino)-quinolin-5-yl]-thiophen-2-yl-methanone oxime]
10 | 184 | 2.3 | ON=C(c1ccc(F)cc1)c1cccc2nc(N[C@@H]3CCc4ccccc43)ccc12 [Example 89, (4-Fluoro-phenyl)-[2-((R)-indan-1-ylamino)-quinolin-5-yl]-methanone oxime]
11 | 175.5 | 1.55 | ON=C(c1ccccc1)c1cccc2nc(N[C@@H]3CCc4ccccc43)ccc12 [Example 91, [2-((R)-Indan-1-ylamino)-quinolin-5-yl]-phenyl-methanone oxime]
12 | 179.5 | 1.22 | ON=C(c1cccc(F)c1)c1cccc2nc(N[C@@H]3CCc4ccccc43)ccc12 [Example 96, (3-Fluoro-phenyl)-[2-((R)-indan-1-ylamino)-quinolin-5-yl]-methanone oxime]

From patent US7923561B2 (Hoffmann-La Roche Inc., priority 2006, dated 2011)
